In patent US6914045B2, “Glycopeptide antibiotics” (Wyeth Holdings Corporation, priority 2001, dated 2005):
Square brackets hold non-standard residues; d marks the D form. Peptide text beside a SMILES is read from it. * marks the point of attachment. ξ: configuration not given here. ξEnduracididine(βξ-OH,4'ξ) = N=C1NCC(C(O)C(N)C(=O)O)N1; X2 = OCC1OC(OC2C(CO)OC(*)C(O)C2O)C(O)C(O)C1O

Tests used:
Assay in all cases: in vitro antibacterial evaluation, MIC by broth dilution
Format in all cases: cell-based
Enterococcus sp. = conditions: broth dilution, 18 hours at 35° C.
Outline: (§1)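 Read-out: the lowest concentration at which the test strain fails to grow. Serial dilutions (64-0.06 μg/mL) in Muller-Hinton II […], 5×10^5 CFU/mL inoculum, NCCLS M7-A2 procedure.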

Escherichia coli = conditions: 18 hours at 35° C.
Outline: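 Step 1: dilute antibiotic across 64-0.06 μg/mL in Muller-Hinton II […]. Step 2: inoculate at 5×10^5 CFU/mL.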

Staphylococcus sp. = conditions: broth dilution, 18 hours at 35° C.
Outline: as §1

Streptococcus sp. = conditions: broth dilution, 18 hours at 35° C.
Outline: as §1

N=C1NCC(C(O)C2NC(=O)C(Cc3ccc(OC4OC(CO)C(OC5OC(CO)C(O)C(O)C5O)C(O)C4O)cc3)NC(=O)C(Cc3ccccc3)NC(=O)CNC(=O)C(CO)NC(=O)C(C(O)C3CNC(=N)N3)NC2=O)N1 (stereo not drawn) [Example 296, Cyclo[glycylphenylalanyl-O-(4-O-hexopyranosylhexopyranosyl)tyrosyl-3-(2-iminoimidazolidin-4-yl)seryl-3-(2-iminoimidazolidin-4-yl)serylseryl]] (cyclo(GFY(X2)[ξEnduracididine(βξ-OH,4'ξ)][ξEnduracididine(βξ-OH,4'ξ)]S); configuration not given here)
>128 µg/mL: MIC Enterococcus faecalis (ATCC 29212) (Enterococcus sp.; Enterococcus faecalis (ATCC 29212)) | MIC Enterococcus faecalis (GC 4553) (Enterococcus sp.; Enterococcus faecalis (GC 4553)) | MIC Enterococcus faecalis (GC 4554) (Enterococcus sp.; Enterococcus faecalis (GC 4554)) | MIC Enterococcus faecalis (GC 6189) (Enterococcus sp.; Enterococcus faecalis (GC 6189)) | MIC Enterococcus faecium (GC 2243) (Enterococcus sp.; Enterococcus faecium (GC 2243)) | MIC Enterococcus faecium (GC 4556) (Enterococcus sp.; Enterococcus faecium (GC 4556)) | MIC Enterococcus faecalis (ATCC 29212) (Enterococcus sp.; strain ATCC 29212) | MIC Enterococcus faecalis (GC 2242) (Enterococcus sp.; strain GC 2242) | MIC Enterococcus faecium (GC 2243) (Enterococcus sp.; strain GC 2243) | MIC Enterococcus faecalis (GC 2691) (Enterococcus sp.; strain GC 2691) | MIC Enterococcus faecalis (GC 3059) (Enterococcus sp.; strain GC 3059) | MIC Enterococcus faecalis (GC 4552) (Enterococcus sp.; strain GC 4552) | MIC Enterococcus faecalis (GC 4553) (Enterococcus sp.; strain GC 4553) | MIC Enterococcus faecalis (GC 4554) (Enterococcus sp.; strain GC 4554) | MIC Enterococcus faecium (GC 4556) (Enterococcus sp.; strain GC 4556) | MIC Enterococcus faecalis (GC 6189) (Enterococcus sp.; strain GC 6189) | MIC Escherichia coli (ATCC 25922) (Escherichia coli; Escherichia coli (ATCC 25922)) | MIC Escherichia coli (GC 4559) (Escherichia coli; Escherichia coli (GC 4559)) | MIC Escherichia coli (GC 4560) (Escherichia coli; Escherichia coli (GC 4560)) | MIC Coagulase Negative Staphylococcus (GC 4547) (Staphylococcus sp.) | MIC Coagulase Negative Staphylococcus (GC 4548) (Staphylococcus sp.) | MIC Coagulase Negative Staphylococcus (GC 4549) (Staphylococcus sp.) | MIC Coagulase Negative Staphylococcus (GC 4551) (Staphylococcus sp.) | MIC Staphylococcus aureus (ATCC 29213) (Staphylococcus sp.) | MIC Staphylococcus aureus (GC 1131) (Staphylococcus sp.) | MIC Staphylococcus aureus (GC 3051) (Staphylococcus sp.) | MIC Staphylococcus aureus (GC 3053) (Staphylococcus sp.) | MIC Staphylococcus aureus (GC 4541) (Staphylococcus sp.) | MIC Staphylococcus aureus (GC 4542) (Staphylococcus sp.) | MIC Staphylococcus aureus (GC 4544) (Staphylococcus sp.) | MIC Staphylococcus aureus (GC 4545) (Staphylococcus sp.) | MIC Staphylococcus aureus-SMITH (GC 4543) (Staphylococcus sp.) | MIC Staphylococcus haemolyticus (GC 4546) (Staphylococcus sp.) | MIC Staphylococcus aureus (ATCC 29213) (Staphylococcus sp.; strain ATCC 29213) | MIC Staphylococcus aureus (GC 1131) (Staphylococcus sp.; strain GC 1131) | MIC Staphylococcus aureus (GC 3051) (Staphylococcus sp.; strain GC 3051) | MIC Staphylococcus aureus (GC 3053) (Staphylococcus sp.; strain GC 3053) | MIC Staphylococcus aureus (GC 4541) (Staphylococcus sp.; strain GC 4541) | MIC Staphylococcus aureus (GC 4542) (Staphylococcus sp.; strain GC 4542) | MIC Staphylococcus aureus (GC 4544) (Staphylococcus sp.; strain GC 4544) | MIC Staphylococcus aureus (GC 4545) (Staphylococcus sp.; strain GC 4545) | MIC Staphylococcus haemolyticus (GC 4546) (Staphylococcus sp.; strain GC 4546) | MIC Coagulase Negative Staphylococcus (GC 4547) (Staphylococcus sp.; strain GC 4547) | MIC Coagulase Negative Staphylococcus (GC 4548) (Staphylococcus sp.; strain GC 4548) | MIC Coagulase Negative Staphylococcus (GC 4549) (Staphylococcus sp.; strain GC 4549) | MIC Coagulase Negative Staphylococcus (GC 4551) (Staphylococcus sp.; strain GC 4551) | MIC Staphylococcus aureus-SMITH (GC 4543) (Staphylococcus sp.; strain SMITH GC 4543) | MIC Streptococcus pneumoniae (ATCC 6301) (Streptococcus sp.; strain ATCC 6301) | MIC Streptococcus pyogenes (GC 4563) (Streptococcus sp.; strain GC 4563) | MIC Streptococcus agalactiae (GC 4564) (Streptococcus sp.; strain GC 4564) | MIC Streptococcus pneumoniae (GC 4565) (Streptococcus sp.; strain GC 4565)
128 µg/mL: MIC Enterococcus avium (GC 4558) (Enterococcus sp.; Enterococcus avium (GC 4558)) | MIC Enterococcus faecium (GC 4557) (Enterococcus sp.; Enterococcus faecium (GC 4557)) | MIC Enterococcus faecium (GC 4557) (Enterococcus sp.; strain GC 4557) | MIC Enterococcus avium (GC 4558) (Enterococcus sp.; strain GC 4558) | MIC Streptococcus pneumoniae (GC 1894) (Streptococcus sp.; strain GC 1894)
